{"source": "patent US20230109717A1", "about": "(GAIA BioMedicine Inc., priority 2020, published 2023)", "key": {"highly active NK cells [1]": {"test_system": "highly active NK cells", "experiment": "Viable cell count and recovery rate of highly active NK cells after thawing, based on cell number at freezing", "set-up": "species or system human", "experimental": "After the thawing, all the dilution and incubation operations were performed on a low-absorption 6-well plate.\nThe cells of the groups diluted in the media were incubated overnight at 37° C. under 5% CO2, and then the numbers of viable cells were counted. The experimental conditions are summarized below.\nThe NK cells obtained by the collection method 1 were suspended in PBS, and incubated at room temperature for 1 hour. The NK cells obtained by the collection method 2 were suspended in (1) the KBM501 medium, (2) KBM501 medium containing 30 μM 4-phenylbutyric acid, (3) KBM501 medium containing 30 μM tauroursodeoxycholic acid dihydrate (TUDCA, Tokyo Kasei Kogyo, T1567), and (4) KBM501 medium containing 30 μM 4-phenylbutyric acid and 30 μM TUDCA, and incubated at 37° C. for 2 hours under 5% CO2. […] After 1 hour, the cells were gently suspended, and number of viable cells was counted. After another 5-fold dilution in the KBM501 medium and incubation at 37° C. for 2 hours under 5% CO2, number of viable cells was counted, and the recovery rate based on the number of cells at the time of freezing was calculated.\nAfter 1 and 3 hours, the cells were gently suspended, and viable cells were counted. In addition, after 1 hour, the cells were diluted 5-fold in the KBM501 medium, and incubated at 37° C. for 2 hours under 5% CO2, and viable cell were counted. Recovery rate of viable cells after the thawing based on the cell number at the time of freezing was calculated using the number of viable cells at each time point.\nAfter 1 and 3 hours, the cells were gently suspended, and viable cells were counted. In addition, after 1 hour, the cells were diluted 5-fold in the KBM501 medium, and incubated at 37° C. for 2 hours under 5% CO2, and viable cell were counted. Recovery rate of viable cells after the thawing based on the cell number at the time of freezing was calculated on the basis of the number of viable cells at each time point after the thawing."}, "highly active NK cells [2]": {"test_system": "highly active NK cells", "experiment": "Viability of freeze-thawed highly active NK cells (7-AAD staining, flow cytometry, FlowJo)", "details": "collect. method 2", "experimental": "The highly activated NK cells (1×10^5 cells/well) thawed under each condition were centrifuged on a 96-well plate (IWAKI, 4870-800SP), the supernatant was removed, and then a 7-amino-actinomycin D (7-AAD) solution diluted with PBS (Beckman Coulter, A 07704) was added to the cells to suspend them, and the suspension was incubated at room temperature (room temperature means 15 to 25° C., the same shall apply in the following experiments) for 20 minutes. The stained cells were measured by using a flow cytometer (BD LSR Fortessa, BD Biosciences).\nThe NK cells frozen for 48 hours or longer were thawed in a water bath at 37° C., and 1×10^5 cells were dispensed on a 96-well plate (IWAKI) immediately after the thawing. […] The cells dispensed immediately after thawing were centrifuged immediately after they were dispensed, and the cells of the other four groups were centrifuged after incubation of 3 hours, measurement was performed by the method for staining with 7-AAD described above, and the results were analyzed with the FlowJo software (FLOWJO, LLC) to calculate viable cell rates.\nThe NK cells frozen for 48 hours or longer were thawed at 37° C. in a water bath, and then 1×10^5 of the cells were dispensed on a 96-well plate immediately after the thawing. […] The cells dispensed immediately after thawing were centrifuged immediately after they were dispensed, and the cells of the other four groups were centrifuged after incubation of 3 hours, measurement was performed by the method for staining with 7-AAD described above, and the results were analyzed with the FlowJo software (FLOWJO, LLC) to calculate viable cell rates.\nThen, measurement was performed by the method for staining with 7-AAD described above, and the results were analyzed with the FlowJo software. […] Then, measurement was performed by the method for staining with 7-AAD described above, and the results were analyzed with the FlowJo software. (8-3) The experiment was performed in the same manner as in (8-1), but (1) PBS, (2) Plasma-Lyte A, (3) Plasma-Lyte A containing 27.7 mEq/L of lactic acid (Nacalai Tesque, 20006-62), (4) Plasma-Lyte A containing 48.84 mg/L of MgSO4.7H2O (Nacalai Tesque, 21002-85), (5) Lactoringer, (6) Veen-F (Fuso Pharma), (7) Solita-T1 (AY Pharmaceuticals), (8) Solita-T3 (AY Pharmaceuticals), (9) 5% glucose injection solution (Terumo), and (10) RPMI medium were used as the solvents for dilution of thawed cells, and the cells were incubated at 37° C. for 3 hours. In the case of (3), lactic acid was added at the same concentration as the lactate concentration in Lactoringer, and neutrality of the solution was confirmed with litmus test paper. In the case of (4), MgSO4 was added at the same concentration as the MgSO4 concentration in HBSS. Measurement was then performed by the method for staining with 7-AAD described above, and the results were analyzed with the FlowJo software. (8-4) The experiment was performed in the same manner as in (8-2), but the cells were treated by using (1) PBS, (2) Plasma-Lyte A, (3) saline (OTSUKA NORMAL SALINE, Otsuka Pharmaceutical), (4) Bicanate (Otsuka Pharmaceutical), and (5) Solacet F (Terumo) as the solvents for dilution of thawed cells. Measurement was then performed by the method for staining with 7-AAD described above, and the results were analyzed with the FlowJo software. […] Immediately after completely thawed, the cells were diluted 10-fold in (1) Plasma-Lyte A, (2) saline, (3) RPMI 1640 medium, (4) Lactoringer, (5) 0.423 mM CaCl2 prepared in Plasma-Lyte A, and (6) 1.36 mM CaCl2, and left to stand at 37° C. for 3 hours. The CaCl2 concentration of (5) was the same as that in the RPMI 1640 medium, and the CaCl2 concentration of (6) was the same as that in Lactoringer. Measurement was then performed by the method for staining with 7-AAD described above, and the results were analyzed with the FlowJo software."}}}
{"compound": "C[C@H](CCC(=O)NCCS(=O)(=O)O)[C@H]1CC[C@H]2[C@@H]3[C@@H](O)C[C@@H]4C[C@H](O)CC[C@]4(C)[C@H]3CC[C@]12C", "note": "[TUDCA, tauroursodeoxycholic acid dihydrate]", "values": [{"measurement": "Recovery rate", "setting": "highly active NK cells [1]; added before freezing at 800 μM (preferable between 2,400 μM and 267 μM)", "result": "higher recovery rate"}, {"measurement": "Recovery rate after the thawing", "setting": "highly active NK cells [1]; pretreatment 2 hours with KBM501 medium supplemented with 30 μM additive before freezing, Example 5", "result": "improved"}, {"measurement": "Recovery rate after thawing", "setting": "highly active NK cells [1]; pretreatment with KBM501 medium supplemented at various concentrations (266 to 2400 μM), Example 7", "result": "improved"}, {"measurement": "Recovery rate after the thawing", "setting": "highly active NK cells [1]; pretreatment with KBM501 medium supplemented with various concentrations (10 to 810 μM), Example 6", "result": "improved"}, {"measurement": "Viability", "setting": "highly active NK cells [2]; Exmp. 6, pretreatment KBM + 10 μM TUDCA 2 h, thawing PlasmaLyte R.T. 1 h, then KBM 2 h", "result": "A (“A” means 70% or higher)"}, {"measurement": "Viability", "setting": "highly active NK cells [2]; Exmp. 6, pretreatment KBM + 10 μM TUDCA 2 h, thawing PlasmaLyte R.T. 3 h", "result": "A (“A” means 70% or higher)"}, {"measurement": "Viability", "setting": "highly active NK cells [2]; Exmp. 6, pretreatment KBM + 30 μM TUDCA 2 h, thawing PlasmaLyte R.T. 1 h, then KBM 2 h", "result": "A (“A” means 70% or higher)"}, {"measurement": "Viability", "setting": "highly active NK cells [2]; Exmp. 6, pretreatment KBM + 30 μM TUDCA 2 h, thawing PlasmaLyte R.T. 3 h", "result": "A (“A” means 70% or higher)"}, {"measurement": "Viability", "setting": "highly active NK cells [2]; Exmp. 6, pretreatment KBM + 90 μM TUDCA 2 h, thawing PlasmaLyte R.T. 1 h, then KBM 2 h", "result": "A (“A” means 70% or higher)"}, {"measurement": "Viability", "setting": "highly active NK cells [2]; Exmp. 6, pretreatment KBM + 90 μM TUDCA 2 h, thawing PlasmaLyte R.T. 3 h", "result": "A (“A” means 70% or higher)"}, {"measurement": "Viability", "setting": "highly active NK cells [2]; Exmp. 6, pretreatment KBM + 270 μM TUDCA 2 h, thawing PlasmaLyte R.T. 1 h, then KBM 2 h", "result": "A (“A” means 70% or higher)"}, {"measurement": "Viability", "setting": "highly active NK cells [2]; Exmp. 6, pretreatment KBM + 270 μM TUDCA 2 h, thawing PlasmaLyte R.T. 3 h", "result": "A (“A” means 70% or higher)"}, {"measurement": "Viability", "setting": "highly active NK cells [2]; Exmp. 6, pretreatment KBM + 810 μM TUDCA 2 h, thawing PlasmaLyte R.T. 1 h, then KBM 2 h", "result": "A (“A” means 70% or higher)"}, {"measurement": "Viability", "setting": "highly active NK cells [2]; Exmp. 6, pretreatment KBM + 810 μM TUDCA 2 h, thawing PlasmaLyte R.T. 3 h", "result": "A (“A” means 70% or higher)"}, {"measurement": "Viability", "setting": "highly active NK cells [2]; Exmp. 7, pretreatment KBM + 266 μM TUDCA 2 h, thawing PlasmaLyte + IL-2, R.T. 1 h", "result": "A (“A” means 70% or higher)"}, {"measurement": "Viability", "setting": "highly active NK cells [2]; Exmp. 7, pretreatment KBM + 266 μM TUDCA 2 h, thawing PlasmaLyte + IL-2, R.T. 1 h, then KBM 2 h", "result": "A (“A” means 70% or higher)"}, {"measurement": "Viability", "setting": "highly active NK cells [2]; Exmp. 7, pretreatment KBM + 266 μM TUDCA 2 h, thawing PlasmaLyte + IL-2, R.T. 3 h", "result": "A (“A” means 70% or higher)"}, {"measurement": "Viability", "setting": "highly active NK cells [2]; Exmp. 7, pretreatment KBM + 266 μM TUDCA 2 h, thawing PlasmaLyte R.T. 1 h", "result": "A (“A” means 70% or higher)"}, {"measurement": "Viability", "setting": "highly active NK cells [2]; Exmp. 7, pretreatment KBM + 266 μM TUDCA 2 h, thawing PlasmaLyte R.T. 1 h, then KBM 2 h", "result": "A (“A” means 70% or higher)"}, {"measurement": "Viability", "setting": "highly active NK cells [2]; Exmp. 7, pretreatment KBM + 266 μM TUDCA 2 h, thawing PlasmaLyte R.T. 3 h", "result": "A (“A” means 70% or higher)"}, {"measurement": "Viability", "setting": "highly active NK cells [2]; Exmp. 7, pretreatment KBM + 800 μM TUDCA 2 h, thawing PlasmaLyte + IL-2, R.T. 1 h", "result": "A (“A” means 70% or higher)"}, {"measurement": "Viability", "setting": "highly active NK cells [2]; Exmp. 7, pretreatment KBM + 800 μM TUDCA 2 h, thawing PlasmaLyte + IL-2, R.T. 1 h, then KBM 2 h", "result": "A (“A” means 70% or higher)"}, {"measurement": "Viability", "setting": "highly active NK cells [2]; Exmp. 7, pretreatment KBM + 800 μM TUDCA 2 h, thawing PlasmaLyte + IL-2, R.T. 3 h", "result": "A (“A” means 70% or higher)"}, {"measurement": "Viability", "setting": "highly active NK cells [2]; Exmp. 7, pretreatment KBM + 800 μM TUDCA 2 h, thawing PlasmaLyte R.T. 1 h", "result": "A (“A” means 70% or higher)"}, {"measurement": "Viability", "setting": "highly active NK cells [2]; Exmp. 7, pretreatment KBM + 800 μM TUDCA 2 h, thawing PlasmaLyte R.T. 1 h, then KBM 2 h", "result": "A (“A” means 70% or higher)"}, {"measurement": "Viability", "setting": "highly active NK cells [2]; Exmp. 7, pretreatment KBM + 800 μM TUDCA 2 h, thawing PlasmaLyte R.T. 3 h", "result": "A (“A” means 70% or higher)"}, {"measurement": "Viability", "setting": "highly active NK cells [2]; Exmp. 7, pretreatment KBM + 2400 μM TUDCA 2 h, thawing PlasmaLyte + IL-2, R.T. 1 h", "result": "A (“A” means 70% or higher)"}, {"measurement": "Viability", "setting": "highly active NK cells [2]; Exmp. 7, pretreatment KBM + 2400 μM TUDCA 2 h, thawing PlasmaLyte + IL-2, R.T. 1 h, then KBM 2 h", "result": "A (“A” means 70% or higher)"}, {"measurement": "Viability", "setting": "highly active NK cells [2]; Exmp. 7, pretreatment KBM + 2400 μM TUDCA 2 h, thawing PlasmaLyte + IL-2, R.T. 3 h", "result": "A (“A” means 70% or higher)"}, {"measurement": "Viability", "setting": "highly active NK cells [2]; Exmp. 7, pretreatment KBM + 2400 μM TUDCA 2 h, thawing PlasmaLyte R.T. 1 h", "result": "A (“A” means 70% or higher)"}, {"measurement": "Viability", "setting": "highly active NK cells [2]; Exmp. 7, pretreatment KBM + 2400 μM TUDCA 2 h, thawing PlasmaLyte R.T. 1 h, then KBM 2 h", "result": "A (“A” means 70% or higher)"}, {"measurement": "Viability", "setting": "highly active NK cells [2]; Exmp. 7, pretreatment KBM + 2400 μM TUDCA 2 h, thawing PlasmaLyte R.T. 3 h", "result": "A (“A” means 70% or higher)"}]}
